According to patent publication US5112864A, “PLA2 inhibitors as antiinflammatories” (G. D. Searle & Co., priority 1991, dated 1992):
pIC50: −log10 of the molar value.

What follows are molecules tested against T1, Human synovial fluid phospholipase A2 (HSF-PLA2) (Homo sapiens, UniProt P14555) (assay: Human synovial fluid phospholipase A2 (HSF-PLA2) assay, [14C]-oleate-labeled autoclaved E. coli substrate). Settings: purified HSF-PLA2; pH 7.0, 5 mM CaCl2; 5 min pre-incubation; 37° C., 30 minutes; mean.
T1 construct: Human synovial fluid phospholipase A2 was purified approximately 5000 fold; from tissue; host or cells: human synovial fluid
T1 sequence (P14555 21-144): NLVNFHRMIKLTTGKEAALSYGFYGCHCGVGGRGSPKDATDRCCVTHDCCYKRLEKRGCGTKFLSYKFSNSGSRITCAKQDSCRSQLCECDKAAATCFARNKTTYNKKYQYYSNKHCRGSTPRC
Assay type: biochemical
Protocol: Human synovial fluid phospholipase A2 was purified approximately 5000 fold following the procedures of Franson et al., Lung 160, 275-284 (1982) and Vishwanath et al., Inflammation 12(6), 549-56 (1988). Following purification the enzyme activity was measured by a modified methodology using [^14 C]-oleate-labeled, autoclaved E. coli as the substrate as also shown in the above noted references. The assay was performed in a final volume of 100 μl containing 50 mM HEPES (pH 7.0), 150 mM NaCl, 5mM CaCl2, 7 n mole [^14 C]-oleate-labeled E. coli phospholipid and with or without the compound from one of the examples herein undergoing an assay. The compound or control vehicle was pre-incubated with the PLA2 for 5 minutes followed by addition of the E. coli substrate to initiate the reaction. The reaction was maintained at 37° C. for 30 minutes and then terminated by the addition of 2 ml tetrahydrofuran (THF). The reaction product, [^14 C]-oleic acid, was extracted using a 1 ml Bond Elut-NH2 Solid phase extraction column. The IC50 value for the compound (mean -S.E.) is given in the following Table I and represents the concentration of the indicated compound required to inhibit 50% of the PLA2 activity.

How did the pIC50 turn out when COC(=O)c1cccc(CC(=O)C#CCCCCCCCCCOc2ccccc2)c1 [Example 7, methyl 3-(2-oxo-13-phenoxy-3-tridecynyl)benzoate] was run?
The pIC50 was 5.56.

With CCCCCCCCCCCCCC#CC(=O)Cc1cccc(C(=O)OC)c1 [Example 5, methyl 3-(2-oxo-3-heptadecynyl) benzoate] as the molecule, how does the pIC50 read?
The pIC50 was 5.22.

CCCCCCCCCCCCCC#CC(=O)Cc1ccccc1C(=O)OC [Example 11, methyl 2-(2-oxo-3heptadecynyl)benzoate] was tested. Which pIC50 did it give?
Its pIC50 is 4.76.

With COCCCCCCCCCC#CC(=O)Cc1cccc(C(=O)OC)c1 [Example 9, methyl 3-(2-oxo-13-methoxy-3-tridecynyl)benzoate] as the molecule, how does the pIC50 read?
The pIC50 was 4.69.

How did the pIC50 turn out when CCCCCCCCCCCCCC#CC(=O)Cc1ccc(C(=O)OC)cc1 [Example 14, methyl 4-(2-oxo-3heptadecynyl)benzoate] was run?
The pIC50 was 5.66.
